We go through 15 molecules from patent US7041785B1, “B1-bradykinin receptor antagonists and use thereof” (Université de Sherbrooke, priority 1996, dated 2006).

What all share (test): cell-based
Experiment [1] has as its target T1, B2 receptor (Cavia porcellus, UniProt O70526).
T1 sequence (O70526 1-372): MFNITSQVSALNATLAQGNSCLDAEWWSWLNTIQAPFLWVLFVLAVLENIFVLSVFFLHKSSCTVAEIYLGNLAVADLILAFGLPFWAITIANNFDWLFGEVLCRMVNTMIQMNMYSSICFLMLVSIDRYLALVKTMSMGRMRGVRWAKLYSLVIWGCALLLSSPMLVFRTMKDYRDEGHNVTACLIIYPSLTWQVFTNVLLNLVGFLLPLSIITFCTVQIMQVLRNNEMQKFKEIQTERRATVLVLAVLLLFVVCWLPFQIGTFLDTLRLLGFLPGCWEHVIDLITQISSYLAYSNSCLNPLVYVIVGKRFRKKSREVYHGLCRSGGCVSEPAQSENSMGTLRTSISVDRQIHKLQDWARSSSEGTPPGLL
To be noted: for G.P.I. pA2: vs BK, Inactive = no detectable antagonistic effect at ≦ 10 μg/ml, F.ag. full agonist, P.ag. partial agonist; for G.P.I. α^E: residual agonistic activity at 10 μg/mL in comparison with BK. The essentials: (§1)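 Isolated rabbit jugular vein (captopril 1 μmol/L), guinea pig ileum, endothelium-free rabbit aorta and human umbilical vein, in Krebs at 37 °C, with isometric tension recorded. Agonism was tested at 10 μg/mL.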

For experiment [2], the target named is T2, B1 receptor (Oryctolagus cuniculus, UniProt P48748).
T2 sequence (P48748 1-352): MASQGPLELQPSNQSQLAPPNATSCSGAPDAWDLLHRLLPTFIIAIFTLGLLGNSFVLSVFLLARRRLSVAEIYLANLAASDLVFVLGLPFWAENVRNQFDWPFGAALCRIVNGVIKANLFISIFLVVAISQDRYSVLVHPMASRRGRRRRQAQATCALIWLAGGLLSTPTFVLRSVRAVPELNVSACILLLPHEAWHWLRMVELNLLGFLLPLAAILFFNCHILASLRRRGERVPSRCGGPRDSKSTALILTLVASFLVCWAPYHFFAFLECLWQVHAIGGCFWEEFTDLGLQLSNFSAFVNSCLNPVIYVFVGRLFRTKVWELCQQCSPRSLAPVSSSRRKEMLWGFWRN
To be noted: for Kb: Rb.A. pA2, apparent affinity as antagonist vs desArg9BK; for Rb.A. α^E: residual agonistic activity at 10 μg/mL in comparison with desArg9BK. The essentials:
as §1

Experiment [3] has as its target T3, B2 receptor (Oryctolagus cuniculus, UniProt Q28642).
T3 sequence (Q28642 1-367): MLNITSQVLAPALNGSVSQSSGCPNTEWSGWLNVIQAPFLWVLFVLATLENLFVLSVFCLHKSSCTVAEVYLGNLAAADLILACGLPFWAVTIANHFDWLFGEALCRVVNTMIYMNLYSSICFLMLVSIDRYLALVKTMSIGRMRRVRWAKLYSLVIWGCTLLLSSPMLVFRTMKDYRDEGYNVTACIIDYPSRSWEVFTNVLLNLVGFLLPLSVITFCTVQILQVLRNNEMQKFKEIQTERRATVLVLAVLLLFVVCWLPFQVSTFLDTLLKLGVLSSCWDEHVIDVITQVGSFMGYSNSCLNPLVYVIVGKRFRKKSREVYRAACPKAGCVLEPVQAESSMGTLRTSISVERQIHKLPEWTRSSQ
To be noted: for Rb.J.V. α^E: residual agonistic activity at 10 μg/mL in comparison with BK. The gist of the method: as §1

Setting [4] is: antagonist applied 10 min before, Inactive = no detectable antagonistic effect at ≦ 10 μg/ml.

Non-standard residues stand in square brackets, D forms with d. Residues, ends and D or L forms follow the SMILES beside them. 2Nal = N[C@@H](Cc1ccc2ccccc2c1)C(=O)O; d2Nal = N[C@H](Cc1ccc2ccccc2c1)C(=O)O; Hyp = O=C(O)[C@@H]1C[C@@H](O)CN1; Tic = O=C(O)[C@@H]1Cc2ccccc2CN1; dTic = O=C(O)[C@H]1Cc2ccccc2CN1; Sar = CNCC(=O)O

As for `CC(C)C[C@H](NC(=O)[C@H]1Cc2ccccc2CN1C(=O)[C@H](CO)NC(=O)[C@H](Cc1ccccc1)NC(=O)CNC(=O)[C@@H]1CCCN1C(=O)[C@@H]1CCCN1C(=O)[C@@H](N)CCCNC(=N)N)C(=O)O` [Compound 8, (D-Tic^7, Leu^8)desArg^9BK] (H-RPPGFS[dTic]L-OH; N-terminus and C-terminus assumed), the “G.P.I. pA2” value in experiment [1] is recorded as “Inactive”. Also, the Kb in experiment [2] (setting [4]) is 1380 nM.
Consider `CNCC(=O)N[C@@H](CCCNC(=N)N)C(=O)N1CCC[C@H]1C(=O)N1CCC[C@H]1C(=O)NCC(=O)N[C@@H](Cc1ccccc1)C(=O)N[C@@H](CO)C(=O)N1Cc2ccccc2C[C@@H]1C(=O)N[C@@H](CC(C)C)C(=O)O` [Compound 9, Sar(D-Tic^7, Leu^8)desArg^9BK] (H-[Sar]RPPGFS[dTic]L-OH; N-terminus and C-terminus assumed), for which the “G.P.I. pA2” value in experiment [1] is “Inactive”. In addition, the Kb in experiment [2] (setting [4]) is 692 nM.
As to `CC(C)C[C@H](NC(=O)[C@H]1Cc2ccccc2CN1C(=O)[C@H](CO)NC(=O)[C@H](Cc1ccccc1)NC(=O)CNC(=O)[C@@H]1CCCN1C(=O)[C@@H]1CCCN1C(=O)[C@H](CCCNC(=N)N)NC(=O)[C@H](N)CCCNC(=N)N)C(=O)O` [Compound 12, D-Arg(D-Tic^7, Leu^8)desArg^9BK] (H-[dR]RPPGFS[dTic]L-OH; N-terminus and C-terminus assumed), in experiment [1], the “G.P.I. pA2” value is given as “Inactive”. Moreover, the Kb in experiment [3] is 4470 nM; in experiment [2] (setting [4]), 200 nM.
On to `CC[C@H](C)[C@H](NC(=O)[C@H]1Cc2ccccc2CN1C(=O)[C@H](CO)NC(=O)[C@H](Cc1ccccc1)NC(=O)CNC(=O)[C@@H]1CCCN1C(=O)[C@@H]1CCCN1C(=O)[C@H](CCCNC(=N)N)NC(=O)[C@H](N)CCCNC(=N)N)C(=O)O` [Compound 13, D-Arg(D-Tic^7, Ile^8)desArg^9BK] (H-[dR]RPPGFS[dTic]I-OH; N-terminus and C-terminus assumed), for which the “G.P.I. pA2” value in experiment [1] was “Inactive”. The results for the Kb in experiment [3] and in experiment [2] (setting [4]) were 4570 nM and 107 nM, respectively. For the same molecule, the “Rb.A. pA2” value in experiment [2] (apparent affinity as antagonist vs desArg9BK, antagonist applied 10 min before, Inactive = no detectable antagonistic effect at ≦ 10 μg/ml) is recorded as 6.97.
With `CC[C@H](C)[C@H](NC(=O)[C@@H]1Cc2ccccc2CN1C(=O)[C@H](CO)NC(=O)[C@H](Cc1ccccc1)NC(=O)CNC(=O)[C@@H]1CCCN1C(=O)[C@@H]1CCCN1C(=O)[C@H](CCCNC(=N)N)NC(=O)[C@H](N)CCCNC(=N)N)C(=O)O` [Compound 14, D-Arg(L-Tic^7, Ile^8)desArg^9BK] (H-[dR]RPPGFS[Tic]I-OH; N-terminus and C-terminus assumed), in experiment [1], the “G.P.I. pA2” value is “Inactive”. Moreover, the Kb in experiment [3] is 6460 nM; in experiment [2] (setting [4]), more than 9120 nM.
The like results for `CC(C)C[C@H](NC(=O)[C@H]1Cc2ccccc2CN1C(=O)[C@H](CO)NC(=O)[C@H](Cc1ccccc1)NC(=O)CNC(=O)[C@@H]1C[C@@H](O)CN1C(=O)[C@@H]1CCCN1C(=O)[C@H](CCCNC(=N)N)NC(=O)[C@H](N)CCCNC(=N)N)C(=O)O` [Compound 17, D-Arg(Hyp^3, D-Tic^7, Leu^8)desArg^9BK] (H-[dR]RP[Hyp]GFS[dTic]L-OH; N-terminus and C-terminus assumed) were, in that order, “Inactive”, more than 9120 nM and 229 nM.
Turning to `CC(=O)N[C@@H](CCCCN)C(=O)N[C@@H](CCCNC(=N)N)C(=O)N1CCC[C@H]1C(=O)N1CCC[C@H]1C(=O)NCC(=O)N[C@@H](Cc1ccccc1)C(=O)N[C@@H](CO)C(=O)N[C@H](Cc1ccc2ccccc2c1)C(=O)N[C@@H](CC(C)C)C(=O)O` [Compound 18, AcLys(D-βNal^7, Leu^8)desArg^9BK] (Ac-KRPPGFS[d2Nal]L-OH; C-terminus assumed), in experiment [1], the “G.P.I. α^E” value is 0 and the “G.P.I. pA2” value was “Inactive”. Further, in experiment [3], the Kb was more than 8710 nM and the “Rb.J.V. α^E” value is 0. Moreover, in experiment [2] (setting [4]), the Kb was 12.3 nM. For the same molecule, the “Rb.A. α^E” value in experiment [2] stood at 0.
Regarding `CC[C@H](C)[C@H](NC(=O)[C@@H](Cc1ccc2ccccc2c1)NC(=O)[C@H](CO)NC(=O)[C@H](Cc1ccccc1)NC(=O)CNC(=O)[C@@H]1CCCN1C(=O)[C@@H]1CCCN1C(=O)[C@H](CCCN=C(N)N)NC(=O)[C@H](CCCCN)NC(C)=O)C(=O)O` [Compound 19, AcLys(D-βNal^7, Ile^8)desArg^9BK] (Ac-KRPPGFS[d2Nal]I-OH), the Kb in experiment [2] (setting [4]) is 3.98 nM.
Consider `CC[C@H](C)[C@H](NC(=O)[C@H](Cc1ccc2ccccc2c1)NC(=O)[C@H](CO)NC(=O)[C@H](Cc1ccccc1)NC(=O)CNC(=O)[C@@H]1CCCN1C(=O)[C@@H]1CCCN1C(=O)[C@H](CCCNC(=N)N)NC(=O)[C@H](CCCCN)NC(C)=O)C(=O)O` [Compound 20, AcLys(L-βNal^7, Ile^8)desArg^9BK] (Ac-KRPPGFS[2Nal]I-OH; C-terminus assumed), for which, in experiment [1], the “G.P.I. α^E” value amounted to 0.06 and the “G.P.I. pA2” value is “Inactive”. Moreover, in experiment [3], the Kb was 7760 nM and the “Rb.J.V. α^E” value is recorded as 0. Besides, in experiment [2] (setting [4]), the Kb was 5010 nM. The “Rb.A. α^E” value in experiment [2] was found to be 0.
`CC[C@H](C)[C@H](NC(=O)[C@@H](Cc1ccc2ccccc2c1)NC(=O)[C@H](CO)NC(=O)[C@H](Cc1ccccc1)NC(=O)CNC(=O)[C@@H]1CCCN1C(=O)[C@@H]1CCCN1C(=O)[C@H](CCCNC(=N)N)NC(=O)[C@H](N)CCCNC(=N)N)C(=O)O` [Compound 23, D-Arg(D-βNal^7, Ile^8)desArg^9BK] (H-[dR]RPPGFS[d2Nal]I-OH; N-terminus and C-terminus assumed): the results for the Kb in experiment [3] and in experiment [2] (setting [4]) were 427 nM and 19.1 nM, respectively.
Consider `CC(C)C[C@H](NC(=O)[C@@H](Cc1ccc2ccccc2c1)NC(=O)[C@H](CO)NC(=O)[C@H](Cc1ccccc1)NC(=O)CNC(=O)[C@@H]1CCCN1C(=O)[C@@H]1CCCN1C(=O)[C@H](CCCNC(=N)N)NC(=O)[C@H](N)CCCNC(=N)N)C(=O)O` [Compound 24, D-Arg(D-βNal^7, Leu^8)desArg^9BK] (H-[dR]RPPGFS[d2Nal]L-OH; N-terminus and C-terminus assumed), for which the “G.P.I. pA2” value in experiment [1] is given as “Inactive”. Further, the Kb in experiment [3] was 3630 nM; in experiment [2] (setting [4]), 50.1 nM.
As to `CC[C@H](C)[C@H](NC(=O)[C@@H](Cc1ccc2ccccc2c1)NC(=O)[C@H](CO)NC(=O)[C@H](Cc1ccccc1)NC(=O)CNC(=O)[C@@H]1CCCN1C(=O)[C@@H]1CCCN1C(=O)[C@H](CCCNC(=N)N)NC(=O)[C@H](N)CCCCN)C(=O)O` [Compound 25, D-Lys(D-βNal^7, Ile^8)desArg^9BK] (H-[dK]RPPGFS[d2Nal]I-OH; N-terminus and C-terminus assumed), the Kb was 3720 nM in experiment [3] and 19.5 nM in experiment [2] (setting [4]).
On the same counts, the results for `CC[C@H](C)[C@H](NC(=O)[C@@H](Cc1ccc2ccccc2c1)NC(=O)[C@H](CO)NC(=O)[C@H](Cc1ccccc1)NC(=O)CNC(=O)[C@@H]1CCCN1C(=O)[C@@H]1CCCN1C(=O)[C@H](CCCNC(=N)N)NC(=O)CNC)C(=O)O` [Compound 26, Sar(D-βNal^7, Ile^8)desArg^9BK] (H-[Sar]RPPGFS[d2Nal]I-OH; N-terminus and C-terminus assumed) are 9120 nM and 38 nM.
On to `CC(=O)N[C@@H](Cc1ccc(O)cc1)C(=O)NCCCCCC(=O)N[C@@H](CCCCN)C(=O)N[C@@H](CCCNC(=N)N)C(=O)N1CCC[C@H]1C(=O)N1CCC[C@H]1C(=O)NCC(=O)N[C@@H](Cc1ccccc1)C(=O)N[C@@H](CO)C(=O)N1CCC[C@H]1C(=O)N[C@@H](CC(C)C)C(=O)O` [Compound 27, AcTyrεAhxLys(Leu^8)desArg^9BK], for which, in experiment [1], the “G.P.I. α^E” value turned out to be 0.30 and the “G.P.I. pA2” value was “P.ag”. Also, the “Rb.J.V. α^E” value in experiment [3] is listed as 0.03. Moreover, in experiment [2] (setting [4]), the Kb is 7.94 nM. Moreover, the “Rb.A. α^E” value in experiment [2] amounted to 0.
With `CNCC(=O)N[C@@H](Cc1ccc(O)cc1)C(=O)NCCCCCC(=O)N[C@@H](CCCCN)C(=O)N[C@@H](CCCNC(=N)N)C(=O)N1CCC[C@H]1C(=O)N1CCC[C@H]1C(=O)NCC(=O)N[C@@H](Cc1ccccc1)C(=O)N[C@@H](CO)C(=O)N1CCC[C@H]1C(=O)N[C@@H](CC(C)C)C(=O)O` [Compound 28, SarTyrεAhxLys(Leu^8)desArg^9BK], the “G.P.I. pA2” value in experiment [1] was “Inactive”. In experiment [2] (setting [4]), the Kb is 6.76 nM.
